Source: patent US9290505B2, “Substituted imidazo[1,2-a]pyrazines as Syk inhibitors” (Gilead Sciences, Inc., priority 2013, dated 2016)
≈ marks a conversion by molar mass, not a printed value.

Key:
[1] = Kinetic solubility in phosphate buffer at pH 7.4; assay type: physicochemical
Protocol: The kinetic solubility of compounds in phosphate buffer at pH 7.4 was assessed. The compounds to be tested were dissolved in dimethylsulfoxide at a 10 mM concentration. Stock samples were diluted, 3 μl with 297 μl of the phosphate buffer at pH 7.4 (DulBecco's phosphate buffered saline (Sigma-Aldrich D8662), overall molarity is 0.149M and pH 7.43). The samples were then incubated for 24 hours at 37° C. with shaking, the centrifuged and an aliquot taken and tested relative to a known standard concentration of 0.1 mM.

[2] = target: Syk (Homo sapiens (Human), UniProt P43405); assay: High Throughput Syk Biochemical Assay (KinEASE TR-FRET)
Protocol: Syk activity was measured using KinEASE (Cisbio), a time-resolved fluorescence resonance energy transfer (TR-FRET) immunoassay. In this assay, Syk-catalyzes the phosphorylation of a XL665-labeled peptide substrate. Europium conjugated phospho-tyrosine specific antibody binds the resulting phosphorylated peptide. Formation of phosphorylated peptide is quantified by TR-FRET with Europium as the donor and XL665 the acceptor in a 2-step endpoint assay. In brief, test compounds serially diluted in DMSO were delivered into Corning white, low volume, non-binding 384 well plates using the Echo 550 acoustic liquid dispenser (Labcyte®). Syk enzyme and substrates were dispensed into assay plates using a Multi-Flo (Bio-Tek Instruments).

[3] = system: human hepatocytes; assay: Human Hepatocyte Stability Assay; assay type: in vitro ADME; details: predicted hepatocyte clearance, 1 μM compound
Protocol: The human […] stability of the compounds as predicted hepatocyte clearance in L/hr/kg was assessed. Compounds to be tested were diluted to 200 μM (4 μl of 10 mM DMSO stock into 196 μl ACN:H2O (50:50). Propranolol was used as a positive control, and buffer only without hepatocytes as 0% control. These were further diluted 4 μl with 891 μl KHB buffer (InVitroGRO catalog number Z99074) to provide 2× dosing solution. To each well of 24 well plate, 250 μl of the 2× dosing solution was added to each well with 250 μl of hepatocytes cells (1×10^6 viable cells/ml per well) or KHB for control samples to achieve a final compound concentration of 1 μM during incubation. The final solvent concentration was 0.01% DMSO and 0.25% ACN. The culture plate was placed on a rocker and incubated at 37° C., 5% CO2. Samples were collected at time 0, 1, 3, and 6 hours. The loss of parent compound was determined using LC-MS methods against a standard curve.

[4] = phosphate buffer, 37 °C, aqueous buffer, kinetic from dmso stock, comparison table, kinetic solubility pH 7.4
[5] = comparison table with known Syk inhibitors
[6] = aqueous buffer, kinetic from dmso stock, kinetic solubility, phosphate buffer pH 7.4, 24 hours at 37° C.
[7] = comparison table, kinetic solubility pH 7.4

Structure (SMILES) | solubility at 24 h [1, 4] [µM] | IC50 [2, 5] [µM] | solubility at 24 h [1, 6] [µM] | solubility at 24 h [1, 7] [µM] | IC50 ([2]; 20 μM ATP, 0.015 nM Syk) [µM] | Hheps CL [3] [L/h/kg]
COc1ccc(Nc2nc(-c3cccc(N)c3)cn3ccnc23)cc1OC [6-(3-aminophenyl)-N-(3,4-dimethoxyphenyl)imidazo[1,2-a]pyrazin-8-amine, reference compound] | 3 (≈ 1.08 µg/mL) | 0.188 | – | – | – | –
Nc1cncc(-c2cn3ccnc3c(Nc3ccc(N4CCOCC4)cc3)n2)c1 [6-(5-aminopyridin-3-yl)-N-(4-morpholinophenyl)imidazo[1,2-a]pyrazin-8-amine, reference compound] | 5 (≈ 1.94 µg/mL) | 0.031 | – | – | – | –
Cc1c(-c2cncc(N)n2)nc(Nc2ccc(N3CCN(C4COC4)CC3)cc2)c2nccn12 [Ex.-4, 6-(6-aminopyrazin-2-yl)-5-methyl-N-(4-(4-(oxetan-3-yl)piperazin-1-yl)phenyl)imidazo[1,2-a]pyrazin-8-amine] | – | 0.044 | 100 (≈ 45.8 µg/mL) | 100 (≈ 45.8 µg/mL) | 0.044 | 0.08
Cc1ncc(-c2cn3ccnc3c(Nc3ccc(N4CCN(C5COC5)CC4)cc3)n2)nc1N [Ex.-1, 6-(6-amino-5-methylpyrazin-2-yl)-N-(4-(4-(oxetan-3-yl)piperazin-1-yl)phenyl)imidazo[1,2-a]pyrazin-8-amine] | – | 0.0062 | 95 (≈ 43.5 µg/mL) | 95 (≈ 43.5 µg/mL) | 0.0062 | 0.12
Nc1cncc(-c2cn3ccnc3c(Nc3ccc(N4CCN(C5COC5)CC4)c(OCCO)c3)n2)n1 [Ex.-5, 2-(5-((6-(6-aminopyrazin-2-yl)imidazo[1,2-a]pyrazin-8-yl)amino)-2-(4-(oxetan-3-yl)piperazin-1-yl)phenoxy)ethanol] | – | 0.0122 | 97 (≈ 48.8 µg/mL) | 97 (≈ 48.8 µg/mL) | 0.0122 | 0.07
Nc1cncc(-c2cn3ccnc3c(Nc3ccc(N4CCO[C@@H](CO)C4)cc3)n2)n1 [Ex.-3, (R)-(4-(4-((6-(6-aminopyrazin-2-yl)imidazo[1,2-a]pyrazin-8-yl)amino)phenyl)morpholin-2-yl)methanol] | – | 0.0133 | 91 (≈ 38.1 µg/mL) | 91 (≈ 38.1 µg/mL) | 0.0133 | 0.09
Cc1ncc(-c2cn3ccnc3c(Nc3ccc(N4CCN(C5COC5)CC4)c(OCCO)c3)n2)nc1N [Ex.-7, 2-(5-((6-(6-amino-5-methylpyrazin-2-yl)imidazo[1,2-a]pyrazin-8-yl)amino)-2-(4-(oxetan-3-yl)piperazin-1-yl)phenoxy)ethanol] | – | 0.0087 | – | – | 0.0087 | 0.05
Nc1cncc(-c2cn3ccnc3c(Nc3ccc(N4CCN(C5COC5)CC4)cc3)n2)n1 [Ex.-2, 6-(6-aminopyrazin-2-yl)-N-(4-(4-(oxetan-3-yl)piperazin-1-yl)phenyl)imidazo[1,2-a]pyrazin-8-amine] | – | – | 95 (≈ 42.1 µg/mL) | 95 (≈ 42.1 µg/mL) | – | 0.055
Nc1cncc(-c2cn3ccnc3c(Nc3ccc(N4CCN(CC(CO)CO)CC4)cc3)n2)n1 [Ex.-6, 2-((4-(4-((6-(6-aminopyrazin-2-yl)imidazo[1,2-a]pyrazin-8-yl)amino)phenyl)piperazin-1-yl)methyl)propane-1,3-diol] | – | 0.0145 | 99 (≈ 47.1 µg/mL) | 99 (≈ 47.1 µg/mL) | 0.0145 | 0.08
COc1ccc(Nc2nc(-c3ccc(N)nc3)cn3ccnc23)cc1OC [6-(6-aminopyridin-3-yl)-N-(3,4-dimethoxyphenyl)imidazo[1,2-a]pyrazin-8-amine, reference compound] | 10 (≈ 3.62 µg/mL) | 0.053 | – | – | – | –
Cc1ncc(-c2cn3ccnc3c(Nc3ccc(N4CCOCC4)cc3)n2)cc1N [6-(5-amino-6-methylpyridin-3-yl)-N-(4-morpholinophenyl)imidazo[1,2-a]pyrazin-8-amine, reference compound] | 5 (≈ 2.01 µg/mL) | 0.016 | – | – | – | –
